Data: US20090304692A1, “TRIAZINE COMPOUNDS AS PI3 KINASE AND MTOR INHIBITORS” (Wyeth, priority 2008, published 2009)
Several values for one entry are separate records, joined by “and”; a condition that tells them apart may be missing. Equal entries are not always repeated. Where two headings read alike, the source gives them in different places.

Experiments:
PI3K-α = PI3K-α (Homo sapiens, UniProt P42336); assay: PI3K-alpha fluorescence polarization assay; settings: read-out: IC50 PI3Kα
Human mTOR (FLAG-TOR) = Human mTOR (FLAG-TOR) (Homo sapiens, UniProt P42345); assay: mTOR kinase assay (DELFIA format, purified enzyme); format: biochemical; settings: read-out: IC50 mTOR
Chain of Human mTOR (FLAG-TOR) (P42345 1360-2549 limits assumed): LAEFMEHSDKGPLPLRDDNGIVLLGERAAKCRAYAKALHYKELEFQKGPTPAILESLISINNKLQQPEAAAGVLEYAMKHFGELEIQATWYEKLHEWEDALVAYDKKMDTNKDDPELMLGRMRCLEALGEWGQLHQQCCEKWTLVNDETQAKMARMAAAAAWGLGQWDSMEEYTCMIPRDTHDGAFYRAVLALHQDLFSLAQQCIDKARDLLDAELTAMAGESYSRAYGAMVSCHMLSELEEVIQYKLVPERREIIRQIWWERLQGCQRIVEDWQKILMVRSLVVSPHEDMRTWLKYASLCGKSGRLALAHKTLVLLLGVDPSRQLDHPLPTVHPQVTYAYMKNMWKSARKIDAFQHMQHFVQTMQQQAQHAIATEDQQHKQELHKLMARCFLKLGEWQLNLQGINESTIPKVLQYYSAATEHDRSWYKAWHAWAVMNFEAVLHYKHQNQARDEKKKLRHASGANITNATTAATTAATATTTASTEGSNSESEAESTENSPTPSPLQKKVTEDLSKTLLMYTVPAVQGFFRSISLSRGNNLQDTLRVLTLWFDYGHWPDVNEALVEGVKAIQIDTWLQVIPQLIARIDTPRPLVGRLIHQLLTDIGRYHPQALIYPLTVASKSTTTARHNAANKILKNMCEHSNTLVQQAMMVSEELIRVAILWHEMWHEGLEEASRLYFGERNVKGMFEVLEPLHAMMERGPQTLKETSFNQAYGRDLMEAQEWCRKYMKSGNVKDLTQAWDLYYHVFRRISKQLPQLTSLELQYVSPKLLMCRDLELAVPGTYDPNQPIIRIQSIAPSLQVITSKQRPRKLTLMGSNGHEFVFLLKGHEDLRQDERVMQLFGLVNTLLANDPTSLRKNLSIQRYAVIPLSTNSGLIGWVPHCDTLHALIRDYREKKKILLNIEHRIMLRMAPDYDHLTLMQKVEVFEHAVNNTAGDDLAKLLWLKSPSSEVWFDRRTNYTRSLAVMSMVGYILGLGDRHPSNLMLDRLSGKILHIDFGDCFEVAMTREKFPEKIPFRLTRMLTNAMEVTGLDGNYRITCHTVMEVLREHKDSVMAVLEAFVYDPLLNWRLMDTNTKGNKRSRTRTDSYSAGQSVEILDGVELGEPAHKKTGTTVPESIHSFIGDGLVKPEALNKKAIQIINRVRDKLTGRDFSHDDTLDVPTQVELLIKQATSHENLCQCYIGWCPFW

[1] = system: human breast MDA-MB-361 tumor cell line; assay: In vitro cell culture growth assay (MTS), MDA-MB-361; format: cell-based; settings: Homo sapiens, three days after drug treatment, read-out: IC50 MDA-MB-361
[2] = system: human prostate PC3-mm2 tumor cell line; assay: In vitro cell culture growth assay (MTS), PC3-mm2; format: cell-based; settings: Homo sapiens, PC3MM2, 72 h, three days after drug treatment, read-out: IC50 PC3-mm2
PI3K-γ = PI3K-γ (Homo sapiens, UniProt P48736); assay: PI3K-gamma fluorescence polarization assay; settings: read-out: IC50 PI3Kγ
Chain of PI3K-γ (P48736 whole entry, species assumed): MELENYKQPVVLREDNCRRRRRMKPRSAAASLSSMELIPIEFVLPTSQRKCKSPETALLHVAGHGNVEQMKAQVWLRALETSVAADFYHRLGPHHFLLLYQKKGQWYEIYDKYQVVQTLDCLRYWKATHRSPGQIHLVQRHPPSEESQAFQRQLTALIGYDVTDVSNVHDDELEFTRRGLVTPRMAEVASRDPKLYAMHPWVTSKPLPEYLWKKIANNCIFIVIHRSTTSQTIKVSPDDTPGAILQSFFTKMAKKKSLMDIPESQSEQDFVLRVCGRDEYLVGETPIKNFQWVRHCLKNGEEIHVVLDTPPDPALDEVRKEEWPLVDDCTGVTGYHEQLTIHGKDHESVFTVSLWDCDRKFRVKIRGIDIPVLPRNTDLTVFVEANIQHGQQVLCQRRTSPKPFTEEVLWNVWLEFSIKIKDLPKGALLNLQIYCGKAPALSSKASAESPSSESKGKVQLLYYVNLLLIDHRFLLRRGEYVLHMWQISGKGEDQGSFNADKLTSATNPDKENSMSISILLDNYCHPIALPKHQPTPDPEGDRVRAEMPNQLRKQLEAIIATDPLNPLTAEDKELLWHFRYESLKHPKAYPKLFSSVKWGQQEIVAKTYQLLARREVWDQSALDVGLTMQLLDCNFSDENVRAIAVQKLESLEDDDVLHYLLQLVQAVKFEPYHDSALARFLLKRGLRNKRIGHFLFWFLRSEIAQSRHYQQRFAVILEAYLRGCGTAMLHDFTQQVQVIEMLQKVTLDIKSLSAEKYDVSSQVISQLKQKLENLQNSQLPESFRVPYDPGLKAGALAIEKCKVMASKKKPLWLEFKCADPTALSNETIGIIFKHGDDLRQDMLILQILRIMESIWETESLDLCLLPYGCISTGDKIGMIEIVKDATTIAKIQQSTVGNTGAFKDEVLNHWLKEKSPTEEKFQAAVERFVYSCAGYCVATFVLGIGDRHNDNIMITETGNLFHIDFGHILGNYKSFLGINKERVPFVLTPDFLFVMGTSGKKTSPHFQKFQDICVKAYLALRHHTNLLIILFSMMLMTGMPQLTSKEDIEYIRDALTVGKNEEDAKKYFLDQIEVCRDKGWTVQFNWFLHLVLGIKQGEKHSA

[3] = 72 h, MTS cell growth assay, MDA-MB-361 cells
[4] = MTS cell growth assay, PC3-mm2 cells
[5] = MDA-MB-361, 72 h, MTS cell growth assay

Chain of PI3K-α (P42336 whole entry, species assumed): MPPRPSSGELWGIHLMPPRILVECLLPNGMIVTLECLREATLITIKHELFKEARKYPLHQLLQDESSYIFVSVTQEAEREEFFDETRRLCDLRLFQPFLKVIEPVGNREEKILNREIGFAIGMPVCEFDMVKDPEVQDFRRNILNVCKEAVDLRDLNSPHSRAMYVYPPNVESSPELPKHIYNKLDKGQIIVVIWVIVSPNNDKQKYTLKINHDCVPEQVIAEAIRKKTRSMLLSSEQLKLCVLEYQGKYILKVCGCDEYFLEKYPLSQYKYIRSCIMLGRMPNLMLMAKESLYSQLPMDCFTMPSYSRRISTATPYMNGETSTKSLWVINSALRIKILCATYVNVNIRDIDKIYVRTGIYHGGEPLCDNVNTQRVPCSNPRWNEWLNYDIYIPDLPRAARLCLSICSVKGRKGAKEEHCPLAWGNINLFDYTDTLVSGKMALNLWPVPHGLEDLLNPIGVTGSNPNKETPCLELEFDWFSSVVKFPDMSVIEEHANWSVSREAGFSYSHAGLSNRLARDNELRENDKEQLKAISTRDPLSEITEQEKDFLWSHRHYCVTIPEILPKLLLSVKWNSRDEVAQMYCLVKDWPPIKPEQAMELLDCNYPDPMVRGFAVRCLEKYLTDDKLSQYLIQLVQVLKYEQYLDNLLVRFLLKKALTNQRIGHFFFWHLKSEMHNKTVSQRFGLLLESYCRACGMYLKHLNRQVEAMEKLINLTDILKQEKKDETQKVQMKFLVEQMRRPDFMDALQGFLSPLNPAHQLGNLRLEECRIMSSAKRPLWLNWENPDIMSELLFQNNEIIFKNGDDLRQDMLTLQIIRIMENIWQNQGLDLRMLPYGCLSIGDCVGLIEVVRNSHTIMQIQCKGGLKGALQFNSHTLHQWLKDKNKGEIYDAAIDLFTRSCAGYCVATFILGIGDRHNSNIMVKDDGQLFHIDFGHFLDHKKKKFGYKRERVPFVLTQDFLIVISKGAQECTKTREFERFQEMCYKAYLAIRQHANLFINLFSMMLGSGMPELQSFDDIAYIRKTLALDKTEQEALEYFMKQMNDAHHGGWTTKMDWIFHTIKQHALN
Chain of PI3K-α (P27986 whole entry partner, species assumed): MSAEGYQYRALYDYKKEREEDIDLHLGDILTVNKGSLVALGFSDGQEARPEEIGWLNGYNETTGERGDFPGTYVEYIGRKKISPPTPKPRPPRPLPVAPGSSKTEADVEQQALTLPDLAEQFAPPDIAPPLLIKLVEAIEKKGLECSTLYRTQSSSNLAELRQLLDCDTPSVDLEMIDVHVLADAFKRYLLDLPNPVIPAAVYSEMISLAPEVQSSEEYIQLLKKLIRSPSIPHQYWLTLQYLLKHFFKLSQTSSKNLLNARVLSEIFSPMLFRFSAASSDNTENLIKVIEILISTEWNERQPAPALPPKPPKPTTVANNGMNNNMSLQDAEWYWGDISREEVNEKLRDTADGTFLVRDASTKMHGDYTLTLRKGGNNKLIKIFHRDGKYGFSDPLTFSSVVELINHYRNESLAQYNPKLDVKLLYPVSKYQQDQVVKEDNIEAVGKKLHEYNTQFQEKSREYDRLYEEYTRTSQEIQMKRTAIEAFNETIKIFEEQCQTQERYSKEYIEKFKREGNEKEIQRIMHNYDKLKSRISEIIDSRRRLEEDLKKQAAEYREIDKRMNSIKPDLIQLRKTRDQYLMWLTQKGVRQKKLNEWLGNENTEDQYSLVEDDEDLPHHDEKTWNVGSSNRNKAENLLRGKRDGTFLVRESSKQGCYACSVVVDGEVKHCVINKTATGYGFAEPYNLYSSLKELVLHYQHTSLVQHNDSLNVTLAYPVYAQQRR

| SMILES | IC50 (PI3K-α) [nM] | IC50 (Human mTOR (FLAG-TOR)) | IC50 (PI3K-γ) [nM] | IC50 [1, 3] [nM] | IC50 [2, 4] [nM] | IC50 [1, 5] [nM] | IC50 ([2]; MTS cell growth assay) [nM] | IC50 (PI3K-α; listed as 732) [nM] | IC50 (PI3K-γ; listed as 732) [nM] | IC50 (PI3K-α; listed as 529) [nM] | IC50 (PI3K-γ; listed as 529) [nM] | IC50 ([1]; MDA-MB-361, 72 h, MDA-MB-361 cells, MTS) [nM] | IC50 ([2]; PC3-mm2 cells, MTS) [nM] |
| --- | --- | --- | --- | --- | --- | --- | --- | --- | --- | --- | --- | --- | --- |
| CCN1CCN(C(=O)c2ccc(NC(=O)Nc3ccc(-c4nc(N5CCOCC5)nc(N5C6CCC5COC6)n4)cc3)cc2)CC1 [Example 803, 1-{4-[(4-ethylpiperazin-1-yl)carbonyl]phenyl}-3-{4-[4-morpholin-4-yl-6-(3-oxa-8-azabicyclo[3.2.1]oct-8-yl)-1,3,5-triazin-2-yl]phenyl}urea] | 3 | 0.19 nM | 29 |  |  |  |  |  |  |  |  | 1 | 6 |
| O=C(Nc1ccc(-c2nc(N3CCOCC3)nc(N3CCOCC3)n2)cc1)Nc1ccc(C(F)(F)F)cc1 [Example 53, 1-[4-(4,6-dimorpholin-4-yl-1,3,5-triazin-2-yl)phenyl]-3-[4-(trifluoromethyl)phenyl]urea] | 45 | 24 nM and 18 nM | 403 |  |  | 662 | 987 |  |  |  |  |  |  |
| CN(C)CCNC(=O)c1ccc(NC(=O)Nc2ccc(-c3nc(N4CCOCC4)nc(N4C5CCC4COC5)n3)cc2)cc1 [Example 694, N-[2-(dimethylamino)ethyl]-4-[({4-[4-morpholin-4-yl-6-(3-oxa-8-azabicyclo[3.2.1]oct-8-yl)-1,3,5-triazin-2-yl]phenyl}carbamoyl)amino]benzamide] | 2 | 0.245 nM | 40 | < 3 | 11 |  |  |  |  |  |  |  |  |
| CC(C)N1CCN(C(=O)c2ccc(NC(=O)Nc3ccc(-c4nc(N5CCOC[C@@H]5C)nc(N5CCOC[C@@H]5C)n4)cc3)cc2)CC1 [Example 614, 1-(4-{4,6-bis[(3S)-3-methylmorpholin-4-yl]-1,3,5-triazin-2-yl}phenyl)-3-(4-{[4-(1-methylethyl)piperazin-1-yl]carbonyl}phenyl)urea] | 2.7 | 1 nM | 32.5 | 4 | 15 |  |  |  |  |  |  |  |  |
| CCc1nc(-c2ccc(NC(=O)Nc3ccc(N4CCC(N(C)C)CC4)cc3)cc2)nc(N2CCOCC2)n1 [Example 341, 1-{4-[4-(dimethylamino)piperidin-1-yl]phenyl}-3-[4-(4-ethyl-6-morpholin-4-yl-1,3,5-triazin-2-yl)phenyl]urea] | 10 | 12 nM and 15.5 nM | 48 |  | 237 | 150 | 237 |  |  | 10.5 | 48.5 |  |  |

The remaining compounds from weak to strong by IC50 (PI3K-α), led by results:

| IC50 (PI3K-α) [nM] | IC50 (Human mTOR (FLAG-TOR)) | IC50 (PI3K-γ) [nM] | IC50 [1, 3] [nM] | IC50 [2, 4] [nM] | IC50 [1, 5] [nM] | IC50 ([2]; MTS cell growth assay) [nM] | IC50 (PI3K-α; listed as 732) [nM] | IC50 (PI3K-γ; listed as 732) [nM] | IC50 (PI3K-α; listed as 529) [nM] | IC50 (PI3K-γ; listed as 529) [nM] | SMILES | IC50 ([1]; MDA-MB-361, 72 h, MDA-MB-361 cells, MTS) [nM] | IC50 ([2]; PC3-mm2 cells, MTS) [nM] |
| --- | --- | --- | --- | --- | --- | --- | --- | --- | --- | --- | --- | --- | --- |
| 46 | 70 nM and 69 nM | 711 |  | 4310 | 3100 | 4310 | 44 | 478 |  |  | CC(C)NCCCc1nc(-c2ccc(NC(=O)Nc3ccncc3)cc2)nc(N2CCOCC2)n1 [Example 275, 1-[4-(4-{3-[(1-methylethyl)amino]propyl}-6-morpholin-4-yl-1,3,5-triazin-2-yl)phenyl]-3-pyridin-4-ylurea] |  |  |
| 18 | 8.55 nM | 64 | 34 | 31 |  |  |  |  |  |  | O=C(Nc1ccncc1)Nc1ccc(-c2nc(-c3cccs3)nc(N3CCOCC3)n2)cc1 [Example 557, 1-{4-[4-morpholin-4-yl-6-(2-thienyl)-1,3,5-triazin-2-yl]phenyl}-3-pyridin-4-ylurea] |  |  |
| 10 | 4 nM | 65 |  |  | 102 | 161 |  |  |  |  | COc1ccc(NC(=O)Nc2ccc(-c3nc(N4CCOCC4)nc(N4CCOCC4)n3)cc2)cc1 [Example 9, 1-[4-(4,6-dimorpholin-4-yl-1,3,5-triazin-2-yl)phenyl]-3-(4-methoxyphenyl)urea] |  |  |
| 1.1 | 0.0085 nM | 16 | 9 | 161 |  |  |  |  |  |  | CN(C)CCN(C)C(=O)c1ccc(NC(=O)Nc2ccc(-c3nc(-c4ccccc4)nc(N4CCOCC4)n3)cc2)cc1 [Example 539, N-[2-(dimethylamino)ethyl]-N-methyl-4-({[4-(4-morpholin-4-yl-6-phenyl-1,3,5-triazin-2-yl)phenyl]carbamoyl}amino)benzamide] |  |  |
